{"source": "patent US11274280B2", "about": "“Generation of functional beta cells from human pluripotent stem cell-derived endocrine progenitors” (Novo Nordisk A/S, priority 2016, dated 2022)", "test_system": "hPSC-derived beta cells", "test": "Perfusion assay of dynamic human insulin secretion in vitro", "format": "cell-based", "details": "human insulin ELISA", "protocol": "Mature beta cells are functionally defined by their rapid response to elevated glucose. Secretion of human insulin by beta cells at the end of BC step 2 was measured as repeated responses to 20 mM glucose±1 μM exendin-4 or ±the anti-diabetic sulfonylurea compound Tolbutamide within a perfusion system.\nBriefly, groups of 300 hand-picked, clusters of hESC- or hiPSC-derived cell clusters were suspended with beads (Bio-Rad #150-4124) in plastic chambers of Biorep PERFUSION SYSTEM (Biorep #PERI-4.2). Under temperature- and CO2-controlled conditions, the cells were perfused at 0.5 ml min-1 with a Krebs buffer. Prior to sample collection, cells were equilibrated under basal (2 mM glucose) conditions for 1 h. During perfusion cells were exposed to repeated challenges with 20 mM glucose±1 μM exendin-4 or ±100 μM Tolbutamide. At the end of perfusion, cells were exposed to cAMP-elevating agents on top of 20 mM glucose. Insulin secretion was measured by human insulin ELISA (Mercodia).", "data": [{"compound": "CCCCNC(=O)NS(=O)(=O)c1ccc(C)cc1", "note": "[tolbutamide, Tolbutamide]", "values": [{"measurement": "effect on insulin secretion", "setting": "100 μM Tolbutamide with 20 mM glucose, day 7 of BC step 2", "result": "significant additive effect"}]}, {"compound": "exendin-4", "values": [{"measurement": "level of insulin secretion", "setting": "1 μM exendin-4 with 20 mM glucose, day 3 and day 7 of BC step 2", "result": "increased the level of insulin secretion"}]}]}
